The text below walks through data of paper PMC6651024, “LIR Motif-Containing Hyperdisulfide β-Ginkgotide is Cytoprotective, Adaptogenic, and Scaffold-Ready” (Molecules, 2019).

In one data set the test system is caspase-9. Description: Western blot of caspase-9 in SH-SY5Y cells. In kind it is cell-based, human. The conditions noted are these: triplicates. The procedure:
In contrast, the β-gB1-treated cells increased the expression of the LC3B-II isoform by 2.8-fold. […] In addition, the β-gB1-treated cells increased the BECN1 expression by 1.5-fold (Figure 2A,B).
(§1) Rat cardio-myoblast cells (H9c2) and […] neuron-like SH-SY5Y cells were purchased from ATCC and maintained in DMEM (Dulbecco’s modified eagle medium) medium supplemented with 10% fetal bovine serum (FBS), 10,000 U/mL of penicillin, and 10,000 µg/mL of streptomycin at 37 °C, 5% CO2.
A 25 µg equivalent quantity of each protein samples were resolved on a 10% and 15% SDS-PAGE gel accordingly and transferred onto a nitrocellulose membrane. Immunoblotting was performed using anti-protein antibodies against glyceraldehyde 3-phosphate dehydrogenase (GAPDH) (1:5000), LC3B (1:1500), Beclin-1 (1:1500), Caspase-3 (1:1500), and Caspase-9 (1:1500). Blots were developed with Clarity Max Western ECL blotting substrates. Protein bands were quantitated densitometrically using ImageJ software (ImageJ15.0b, Wayen Rasband, NIH, Bethesda, Maryland, USA), expressed relative to GAPDH, and normalized to the vehicle control cells. Statistical calculations and bar graphs were done using GraphPad Prism software (Version 6.01), and three individual experimental data sets were used for the calculation. Data are presented as means ± SD and compared by the Holm–Sidak multiple t-tests method. […]

For another data set, the system named is H9c2 cells. Format: cell-based, rat. The conditions noted are these: 48 h hypoxia, MTT. How it is done:
Autophagy is an integrated stress response that clears the subcellular damages. Previous studies have shown that such damages can be induced by hypoxia and hypoxia-reoxygenation stress. Clearing subcellular damages would increase survivability. In traditional medicine, G. biloba is used as an herbal remedy for acute ischemic stroke and post-stroke recovery. To examine the effects of β-gB1 in hypoxia stress, we used cardio-myoblast H9c2 and SH-SY5Y cells. Cells were cultured with or without β-gB1 and incubated in a hypoxic environment for 48 h before the assessment of cell survival by the MTT assay. […] Importantly, when the concentration of β-gB1 was reduced tenfold from 10 to 1 µM, a 22–24% increase of survivability was still observed in H9c2 and SH-SY5Y cells (Figure 3A–D). […]
Cells were cultured in DMEM with or without β-gB1/S-alkylated β-gB1 (β-gB1Alk) for 48 h under normoxia, hypoxia, and hypoxia-reoxygenation conditions. […] The culture medium was then aspirated, and purple formazan crystals were dissolved in DMSO for colorimetric quantification at 570 nm using a microplate reader with a reference wavelength of 630 nm. […]

Another data set deals with SH-SY5Y cells. The data set is described as follows: MTT-based cell proliferation assay under normoxia, SH-SY5Y. The conditions noted are these: 10 µM peptide, 48 h, triplicates. On the set-up: species or system human.
Source text: In addition, β-gB1 is non-toxic to Vero and BHK (baby hamster kidney) cell lines based on an MTT assay. […] LDH is a cytoplasmic enzyme which is rapidly released into the cell culture medium upon plasma membrane damage and is widely used as a marker for cytotoxicity. Thus, an LDH-release assay measures the level of plasma membrane damage to a cell population.
as §1
Cells were cultured in DMEM with or without β-gB1/S-alkylated β-gB1 (β-gB1Alk) for 48 h under normoxia, hypoxia, and hypoxia-reoxygenation conditions. Phosphate-buffered saline (PBS) was used as a vehicle control. After 48 h, MTT (3-(4,5-dimethylthiazol-2-yl)-2,5-diphenyltetrazolium bromide) reagent was added with a final concentration of 0.5 mg/mL, and it was incubated at 37 °C for 2 h. The culture medium was then aspirated, and purple formazan crystals were dissolved in DMSO for colorimetric quantification at 570 nm using a microplate reader with a reference wavelength of 630 nm. […]

“Also recorded” adds a separate entry of the source. Read-outs that look alike come from different tables or passages of the source. Where a SMILES comes first, the peptide text is derived from it.

As for `CC[C@H](C)[C@@H]1NC(=O)[C@@H]2CSSC[C@H](NC(=O)CNC(=O)[C@@H](NC(=O)[C@H](CCC(=O)O)NC(=O)[C@@H](N)Cc3ccc(O)cc3)[C@@H](C)O)C(=O)N[C@@H](CCCCN)C(=O)N[C@@H](CCCNC(=N)N)C(=O)N[C@H]3CSSC[C@@H](C(=O)O)NC(=O)[C@H](CSSC[C@H](NC3=O)C(=O)N[C@@H](Cc3ccc(O)cc3)C(=O)N[C@@H](CC(C)C)C(=O)N[C@@H](CC(=O)O)C(=O)N[C@@H](CCC(=O)O)C(=O)N[C@@H](Cc3ccc(O)cc3)C(=O)NCC(=O)N2)NC(=O)[C@H](CCCNC(=N)N)NC1=O` [β-gB1] (HELM PEPTIDE1{Y.E.T.G.C.K.R.C.C.Y.L.D.E.Y.G.C.I.R.C.C}$PEPTIDE1,PEPTIDE1,5:R3-16:R3|PEPTIDE1,PEPTIDE1,8:R3-20:R3|PEPTIDE1,PEPTIDE1,9:R3-19:R3$$$V2.0; N-terminus and C-terminus assumed), in the data set on caspase-9, the “Expression of caspase-9 in treated cells” value is “remained unchanged”. Also, the “Increase of cell survivability under hypoxia” value was 22–24% in the data set on H9c2 cells (H9c2, 1 µM peptide, range printed jointly for H9c2 and SH-SY5Y); 37% in the data set on H9c2 cells (H9c2, 10 µM peptide, triplicates). Moreover, in the data set with SH-SY5Y cells, the “Cell viability (growth or death) under normoxia” value is on record as “No change in cell viability; also recorded: no significant effect on the growth or death”.
